Data published in US10793527B2, “Adenosine monophosphate-activated protein kinase agonist” (NATIONAL YANG-MING UNIVERSITY, priority 2016, dated 2020).

Key:
PLC/PRF/5 (PLC5) cells = assay: Cell viability of liver cancer cells (Prestoblue), PLC5; assay type: cell-based; details: PLC5 cells, 48 hr
Description: Hepatoma cell Huh-7 was obtained from Health Science Research Resources Bank (HSRRB, Osaka. Japan; JCRB0403); Hepatoma cell PLC/PRF/5 (PLC5), Sk-Hep-1 and HCC1806 were obtained from the American Type Culture Collection (ATCC, Manassas, Va.). All cell lines are cultured immediately and frozen, so the frozen cells can be thawed every 3 months to allow experiments are conducted with the same batch of cells.
Analysis is performed using a commercial kit Prestoblue assay produced by Thermo Fisher Scientific. Three liver cancer cell lines PLC/PRF/5, SK-hep1, and Huh-7 are cultured with compound SCT-1015 for 48 hours and 72 hours, respectively. […] The results support that the compound of the present invention can activate AMPK to inhibit the proliferation of liver cancer cells.

AMPK T172 = assay: Detection of AMPK phosphorylation by ELISA assay in PLC5 cells; assay type: cell-based; details: PLC5 cultured with 10 μM compound for 24 hours, compared to control group
Description: In this analysis, the commercial kit AMPK […] Phospho-ELISA Kit (KHO0651) produced by ThermoFisher Science is utilized. The hepatoma cell PLC5 is cultured with 10 μM of the compound for 24 hours, and the analysis is performed according to the manual, and the absorbance was detected at a wavelength of 450 nm.

[1] = Treatment of diet-induced obesity (DIO) mice, body weight; assay type: in vivo; details: compared to the control group of mice (FIG. 6)
Description: The male mice C57BL/6 were purchased from the National Laboratory Animal Center (NLAC, Taipei, Taiwan) and fed high-fat-die for 4 weeks to establish the diet-induced obesity (DIO) mouse model for subsequent experiments

SMILES | IC50 (PLC/PRF/5 (PLC5) cells) [µM] | AMPK T172 activity (AMPK T172) [fold] | body weight lost [1]
Cc1ccc(C(=O)Nc2ccc(Cl)c(C(F)(F)F)c2)cc1Nc1nccc(-c2ccc(C#N)cc2)n1 [SCT-1001, N-(4-chloro-3-(trifluoromethyl)phenyl)-(3)-((4-(4-cyanophenyl)pyrimidin-2-yl)amino)-4-methylbenzamide] | > 20 |  | 
Cc1ccc(C(=O)Nc2ccc(Cl)c(C(F)(F)F)c2)cc1Nc1nccc(-c2cccc(C#N)c2)n1 [SCT-1002, N-(4-chloro-3-(trifluoromethyl)phenyl)-3-((4-(3-cyanophenyl)pyrimidin-2-yl)amino)-4-methylbenzamide] | > 20 | 1.2 | 
Cc1ccc(C(=O)Nc2ccc(Cl)c(C(F)(F)F)c2)cc1Nc1nccc(-c2ccc[nH]2)n1 [SCT-1003, 3-((4-(1H-pyrrol-2-yl)pyrimidin-2-yl)amino)-N-(4-chloro-3-(trifluoromethyl)phenyl)-4-methylbenzamide] | > 20 | 1.1 | 
Cc1ccc(C(=O)Nc2ccc(Cl)c(C(F)(F)F)c2)cc1Nc1nccc(-c2ccccc2)n1 [SCT-1004, N-(4-chloro-3-(trifluoromethyl)phenyl)-4-methyl-3-((4-phenylpyrimidin-2-yl)amino)benzamide] | > 20 | 1.1 | 
COc1ccc2ccccc2c1-c1ccnc(Nc2cc(C(=O)Nc3ccc(Cl)c(C(F)(F)F)c3)ccc2C)n1 [SCT-1005, N-(4-chloro-3-(trifluoromethyl)phenyl)-3-((4-(2-methoxynaphthalen-1-yl)pyrimidin-2-yl)amino)-4-methylbenzamide] | > 20 | 1.0 | 
Cc1ccc(C(=O)Nc2ccc(Cl)c(C(F)(F)F)c2)cc1Nc1cc(-c2ccccc2)ncn1 [SCT-1006, N-(4-chloro-3-(trifluoromethyl)phenyl)-4-methyl-3-((6-phenylpyrimidin-4-yl)amino)benzamide] | > 20 | 1.3 | 
Cc1ccc(C(=O)Nc2ccc(Cl)c(C(F)(F)F)c2)cc1Nc1nccc(-c2cccs2)n1 [SCT-1007, N-(4-chloro-3-(trifluoromethyl)phenyl)-4-methyl-3-((4-(thiophen-2-yl)pyrimidin-2-yl)amino)benzamide] | > 20 | 1.1 | 
CSc1cccc(-c2ccnc(Nc3cc(C(=O)Nc4ccc(Cl)c(C(F)(F)F)c4)ccc3C)n2)c1 [SCT-1008, N-(4-chloro-3-(trifluoromethyl)phenyl)-4-methyl-3-((4-(3-(methylthio)phenyl)pyrimidin-2-yl)amino)benzamide] | > 20 | 1.0 | 
Cc1cc(-c2ccnc(Nc3cc(C(=O)Nc4ccc(Cl)c(C(F)(F)F)c4)ccc3C)n2)ccc1F [SCT-1009, N-(4-chloro-3-(trifluoromethyl)phenyl)-3-((4-(4-fluoro-3-methylphenyl)pyrimidin-2-yl)amino)-4-methylbenzamide] | > 20 | 1.1 | 
Cc1ccc(C(=O)Nc2ccc(Cl)c(C(F)(F)F)c2)cc1Nc1nccc(-c2ccc(OC(F)(F)F)cc2)n1 [SCT-1010, N-(4-chloro-3-(trifluoromethyl)phenyl)-4-methyl-3-((4-(4-(trifluoromethoxy)phenyl)pyrimidin-2-yl)amino)benzamide] | > 20 | 1.0 | 
Cc1ccc(C(=O)Nc2ccc(Cl)c(C(F)(F)F)c2)cc1Nc1nccc(-c2ccc(C(F)(F)F)cc2)n1 [SCT-1011, N-(4-chloro-3-(trifluoromethyl)phenyl)-4-methyl-3-((4-(4-(trifluoromethyl)phenyl)pyrimidin-2-yl)amino)benzamide] | > 20 | 1.1 | 
Cc1ccc(C(=O)Nc2ccc(Cl)c(C(F)(F)F)c2)cc1Nc1nccc(-c2cc(Cl)cc(Cl)c2)n1 [SCT-1012, N-(4-chloro-3-(trifluoromethyl)phenyl)-3-((4-(3,5-dichlorophenyl)pyrimidin-2-yl)amino)-4-methylbenzamide] | > 20 | 1.0 | 
N#Cc1ccc(-c2ccnc(Nc3cccc(NC(=O)Nc4ccc(Cl)c(C(F)(F)F)c4)c3)n2)cc1 [SCT-1013, 1-(4-chloro-3-(trifluoromethyl)phenyl)-3-(3-((4-(4-cyanophenyl)pyrimidin-2-yl)amino)phenyl)urea] | > 20 | 1.0 | 
N#Cc1cccc(-c2ccnc(Nc3cccc(NC(=O)Nc4ccc(Cl)c(C(F)(F)F)c4)c3)n2)c1 [SCT-1014] | > 20 | 1.0 | 
O=C(Nc1cccc(Nc2nccc(-c3ccccc3)n2)c1)Nc1ccc(Cl)c(C(F)(F)F)c1 [SCT-1016, 1-(4-chloro-3-(trifluoromethyl)phenyl)-(3-((4-phenylpyrimidin-2-yl)amino)phenyl)urea] | > 20 | 1.0 | 
O=C(Nc1cccc(Nc2nccc(-c3cccs3)n2)c1)Nc1ccc(Cl)c(C(F)(F)F)c1 [SCT-1017, 1-(4-chloro-3-(trifluoromethyl)phenyl)-3-(3-((4-(thiophen-2-yl)pyrimidin-2-yl)amino)phenyl)urea] | > 20 | 1.1 | 
CSc1cccc(-c2ccnc(Nc3cccc(NC(=O)Nc4ccc(Cl)c(C(F)(F)F)c4)c3)n2)c1 [SCT-1018, 1-(4-chloro-3-(trifluoromethyl)phenyl)-3-(3-((4-(3-(methylthio)phenyl)pyrimidin-2-yl)amino)phenyl)urea] | > 20 | 1.1 | 
Cc1cc(-c2ccnc(Nc3cccc(NC(=O)Nc4ccc(Cl)c(C(F)(F)F)c4)c3)n2)ccc1F [SCT-1019, 1-(4-chloro-3-(trifluoromethyl)phenyl)-3-(3-((4-(4-fluoro-3-methylphenyl)pyrimidin-2-yl)amino)phenyl)urea] | > 20 | 1.0 | 
O=C(Nc1cccc(Nc2nccc(-c3ccc(OC(F)(F)F)cc3)n2)c1)Nc1ccc(Cl)c(C(F)(F)F)c1 [SCT-1020, 1-(4-chloro-3-(trifluoromethyl)phenyl)-3-(3-((4-(4-(trifluoromethoxy)phenyl)pyrimidin-2-yl)amino)phenyl)urea] | > 20 | 1.3 | 
O=C(Nc1cccc(Nc2nccc(-c3ccc(C(F)(F)F)cc3)n2)c1)Nc1ccc(Cl)c(C(F)(F)F)c1 [SCT-1021, 1-(4-chloro-3-(trifluoromethyl)phenyl)-3-(3-((4-(4-(trifluoromethyl)phenyl)pyrimidin-2-yl)amino)phenyl)urea] | > 20 | 1.2 | 
O=C(Nc1cccc(Nc2cc(-c3ccccc3)ncn2)c1)Nc1ccc(Cl)c(C(F)(F)F)c1 [SCT-1022] | > 20 | 1.4 | 
O=C(Nc1cccc(Nc2nccc(-c3cc(Cl)cc(Cl)c3)n2)c1)Nc1ccc(Cl)c(C(F)(F)F)c1 [SCT-1023, 1-(4-chloro-3-(trifluoromethyl)phenyl)-3-(3-((4-(3,5-dichlorophenyl)pyrimidin-2-yl)amino)phenyl)urea] | > 20 |  | 
CCc1cccc(NC(=O)Nc2cccc(Nc3nccc(-c4ccc[nH]4)n3)c2)c1 [SCT-1033] | > 20 |  | 
Cc1ccc(F)c(NC(=O)Nc2cccc(Nc3nccc(-c4ccc[nH]4)n3)c2)c1 [SCT-1034] | > 20 |  | 
COC(=O)c1cccc(NC(=O)Nc2cccc(Nc3nccc(-c4ccc[nH]4)n3)c2)c1 [SCT-1037] | > 20 |  | 
O=C(Nc1cccc(Nc2nccc(-c3ccc[nH]3)n2)c1)Nc1cccc(C(=O)O)c1 [SCT-1038, 3-(3-(3-((4-(1H-pyrrol-2-yl)pyrimidin-2-yl)amino)phenyl)ureido)benzoic acid] | > 20 |  | 
COC(=O)c1cc(NC(=O)Nc2cccc(Nc3nccc(-c4ccc[nH]4)n3)c2)ccc1C [SCT-1039, Methyl 5-(3-(3-((4-(1H-pyrrol-2-yl)pyrimidin-2-yl)amino)phenyl)ureido)-2-methylbenzoate] | > 20 |  | 
COC(=O)c1cc(NC(=O)Nc2cccc(Nc3nccc(-c4ccc[nH]4)n3)c2)ccc1Cl [SCT-1041, Methyl 5-(3-(3-((4-(1H-pyrrol-2-yl)pyrimidin-2-yl)amino)phenyl)ureido)-2-chlorobenzoate] | > 20 |  | 
CCCCCCCCCCC[C@@H](C[C@@H]1OC(=O)[C@H]1CCCCCC)OC(=O)[C@H](CC(C)C)NC=O [orlistat, reference compound] |  |  | similar
